BigSolDB 2.1

Conditions: in water

| Structure (SMILES) | solubility (mole fraction) (278.15 K) | solubility (mole fraction) (283.15 K) | solubility (mole fraction) (288.15 K) | solubility (mole fraction) (293.15 K) | solubility (mole fraction) (298.15 K) | solubility (mole fraction) (303.15 K) | solubility (mole fraction) (308.15 K) | solubility (mole fraction) (313.15 K) | solubility (mole fraction) (318.15 K) | solubility (mole fraction) (323.15 K) | solubility (mole fraction) (328.15 K) | solubility (mole fraction) (333.15 K) |
| --- | --- | --- | --- | --- | --- | --- | --- | --- | --- | --- | --- | --- |
| CCC(N)=O | 0.134 | 0.163 | 0.195 | 0.232 | 0.276 | 0.315 | 0.371 | 0.4 | 0.45 | 0.486 | 0.527 | 0.568 |
| CCCC(N)=O | 0.0163 | 0.021 | 0.026 | 0.0331 | 0.0442 | 0.0575 | 0.0724 | 0.0895 | 0.109 | 0.131 | 0.152 | 0.175 |
